Source: PMC1838960, “Inhibition of Hippocampal Matrix Metalloproteinase-3 and -9 Disrupts Spatial Memory” (Neural Plasticity, 2006)

Experiments:
[1] = Morris water maze task, probe trial; format: in vivo, male Sprague-Dawley rats; conditions: for time spent in the target quadrant: 70 μg/day cumulative, 120-s probe trial on day 8, mean ± SEM
Source text: The protocols utilized in this investigation minimized pain and discomfort, were approved by the Washington State University Institutional Animal Care and Use Committee, and conformed to the guidelines for the care and use of laboratory animals as required by the National Institutes of Health Guide for the Care and Use of Laboratory Animals (NIH Publication No. 80-23). Male Sprague-Dawley rats (300–350 g, breeding stock derived from Taconic, Germantown, NY) were adapted to a 12-hour light/dark cycle initiated at 0600 hour in the American Association for the Accreditation of Laboratory Animal Care approved vivarium at a temperature of 21 ± 1°C. The animals were housed in pairs and provided with water and food (Harlan Teklad F6 Rodent Diet, Madison, WI) ad libitum except the night prior to surgery when food was withheld. Each animal was prepared with bilateral guide cannulas targeting either the dorsal hippocampi (flat skull coordinates relative to bregma: post: −4.0 mm, lat: ±2.5 mm from midline) or lateral ventricles (post: 1.0 mm, lat: ±1.5 mm from midline) under ketamine-xylazine anesthesia (100 and 2 mg/kg, resp., intramuscularly). The guide was constructed from PE-60 tubing (Clay Adams, Parsippany, NJ) with a heat bulge that rested on top of the cranium thus serving as a stop to further penetration. The total length of the guide was 2.5 cm with a distance from the beveled tip to the heat bulge of 2.0 and 2.5 mm for the dorsal hippocampus and icv, respectively. All infusions were made using a 30-gauge stainless-steel tubing injector with a beveled end that protruded 2.0 mm beyond the tip of the PE guide cannula. The injector was attached to a 10 μL Hamilton syringe by PE-20 tubing. The animals were hand gentled for 5 minutes per day during the 7 days of recovery from surgery. […]
The Morris water maze task was used to test spatial memory acquisition. […] Swim speed was determined from these values. […]

[2] = target: T1, MMP-3 (stromelysin-1) catalytic domain (Homo sapiens, UniProt P08254); test: MMP fluorescence enzyme assay, MMP-3 catalytic domain; format: biochemical
T1 construct: Catalytic domains for MMP-3 and -9 were used; purchased Biomol International LP
T1 sequence (P08254 100-272 limits assumed): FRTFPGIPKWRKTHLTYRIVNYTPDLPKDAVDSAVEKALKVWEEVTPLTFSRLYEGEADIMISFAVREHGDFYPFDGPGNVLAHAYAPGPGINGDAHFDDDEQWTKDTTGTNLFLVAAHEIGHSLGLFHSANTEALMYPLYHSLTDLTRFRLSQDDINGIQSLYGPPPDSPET
Procedure: (§1) Enzyme assays for MMP activity were conducted in black 96-well plates according to manufacturer instructions (Biomol International LP, Plymouth Meeting, Pa). Catalytic domains for MMP-3 and -9 were used with the fluorogenic peptide substrate: Mca-Pro-Leu-Gly-Leu-Dpa-Ala-Arg-NH2. Solutions were preincubated with FN-439 for 30 minutes at 37°C. Subsequently, the fluorogenic peptide substrate was added and fluorescence was measured at 10-minute intervals for one hour using a Perkin-Elmer plate reader. Slopes were derived from the linear portion of the curves and background slopes were subtracted from all samples. The slopes were normalized as percent of enzyme activity compared with activity in the absence of inhibitor. IC50 values were extrapolated using quadratic and sigmoidal curve fit programs for each sample and were averaged.

[3] = Morris water maze task, acquisition training; format: in vivo, male Sprague-Dawley rats; conditions: for positive thigmotaxis (ratio of time near the wall to total trial time), day 8 / day 8 latency to find the platform / day 8 distance swum to find the platform: 70 μg/day cumulative; for day 8 latency to find the platform / day 8 distance swum to find the platform: mean ± SEM; for day 8 latency to find the platform: n = 8; for overall swim speed during the 8 days of training: no difference; for distance to find the platform, representative rat / latency to find the platform, representative rat: single rat, day 8 trial
Source text: The protocols utilized in this investigation minimized pain and discomfort, were approved by the Washington State University Institutional Animal Care and Use Committee, and conformed to the guidelines for the care and use of laboratory animals as required by the National Institutes of Health Guide for the Care and Use of Laboratory Animals (NIH Publication No. 80-23). Male Sprague-Dawley rats (300–350 g, breeding stock derived from Taconic, Germantown, NY) were adapted to a 12-hour light/dark cycle initiated at 0600 hour in the American Association for the Accreditation of Laboratory Animal Care approved vivarium at a temperature of 21 ± 1°C. The animals were housed in pairs and provided with water and food (Harlan Teklad F6 Rodent Diet, Madison, WI) ad libitum except the night prior to surgery when food was withheld. Each animal was prepared with bilateral guide cannulas targeting either the dorsal hippocampi (flat skull coordinates relative to bregma: post: −4.0 mm, lat: ±2.5 mm from midline) or lateral ventricles (post: 1.0 mm, lat: ±1.5 mm from midline) under ketamine-xylazine anesthesia (100 and 2 mg/kg, resp., intramuscularly). The guide was constructed from PE-60 tubing (Clay Adams, Parsippany, NJ) with a heat bulge that rested on top of the cranium thus serving as a stop to further penetration. The total length of the guide was 2.5 cm with a distance from the beveled tip to the heat bulge of 2.0 and 2.5 mm for the dorsal hippocampus and icv, respectively. All infusions were made using a 30-gauge stainless-steel tubing injector with a beveled end that protruded 2.0 mm beyond the tip of the PE guide cannula. The injector was attached to a 10 μL Hamilton syringe by PE-20 tubing. The animals were hand gentled for 5 minutes per day during the 7 days of recovery from surgery. Those animals prepared with dorsal hippocampus guide cannulas were randomly assigned to one of two groups (8 rats each) that received either FN-439 or artificial cerebrospinal fluid vehicle (aCSF; in mM: 124 NaCl, 3 KCl, 1.24 […], 1.3 MgSO4, 2.0 CaCl2, 26 NaHCO3, and 10 D-glucose). Those animals prepared with icv cannulas were similarly assigned.
Our laboratory previously used a 7.2 mM stock in aCSF icv infused over 5 minutes to a total volume of 10 μL (35 μg) 10 minutes prior to behavioral testing, and again 3 hours post-testing (cumulative dose = 70 μg). Presently, we utilized a 14.4 mM stock in aCSF infused over 1 minute to a total volume of 5 μL, that is, 2.5 μL for each side (17.5 μg in 2.5 μL aCSF/min) 20 minutes prior to behavioral testing (5 trials), and again 10 minutes after testing (cumulative dose = 70 μg) each day. The protocol used for icv infusion was 35 μg in 5 μL aCSF infused over 1 minute, 20 minutes prior to testing and again 10 minutes following testing (cumulative dose = 70 μg). Behavioral testing in the Morris water maze task was conducted by an experimenter blind to the treatment of each animal.
The Morris water maze task was used to test spatial memory acquisition. This protocol has been described in detail. Briefly, each trial entailed placing the animal into the water facing the wall of the pool (1.6 m in diameter painted black, filled to a depth of 30 cm) at one of four locations (North (N), South (S), East (E), and West (W)) and tracking its swimming path and duration (Chromatrac; San Diego Instruments, San Diego, Calif) until the submerged platform was found (12 cm in diameter painted black, 2 cm below the surface). Swim speed was determined from these values. If the animal located the platform within 120 seconds it was permitted 30 seconds on the platform before the next trial commenced. […] The animal's entry point was randomized on each trial, and the location of the platform was randomly assigned to one of the four quadrants and remained fixed for each animal throughout training (5 trials/day for 8 days). At the conclusion of the 5 acquisition trials on day 8 each animal was administered one probe trial. […]

[4] = target: T2, MMP-9 (gelatinase B) catalytic domain (Homo sapiens, UniProt P14780); test: MMP fluorescence enzyme assay, MMP-9 catalytic domain; format: biochemical
T2 construct: Catalytic domains for MMP-3 and -9 were used; purchased Biomol International LP
T2 sequence (P14780 107-457 limits assumed): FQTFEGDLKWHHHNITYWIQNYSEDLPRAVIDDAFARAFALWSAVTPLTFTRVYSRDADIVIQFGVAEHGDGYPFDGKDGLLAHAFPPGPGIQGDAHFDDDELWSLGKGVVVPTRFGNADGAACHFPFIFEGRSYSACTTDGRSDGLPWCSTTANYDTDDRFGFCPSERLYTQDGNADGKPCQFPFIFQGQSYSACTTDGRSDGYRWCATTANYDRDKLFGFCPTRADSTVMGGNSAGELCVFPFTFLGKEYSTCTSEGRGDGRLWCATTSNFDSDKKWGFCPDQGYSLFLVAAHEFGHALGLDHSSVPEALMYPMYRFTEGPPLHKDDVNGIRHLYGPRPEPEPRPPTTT
Procedure: as §1

[5] = icv, 7.2 mM stock, 10 μL (35 μg) twice, cumulative 70 μg; ref [27]; cited from earlier work
Source text: (§2) The potential contribution of ECM remodeling to learning and memory has only recently been addressed. Our laboratory has focused on hippocampal mediated spatial memory and measured elevations in hippocampal MMP-3 and MMP-9 during acquisition of the Morris water maze task.

[6] = test system: late-phase of long-term potentiation (LTP); conditions: ref [27]; cited from earlier work
Source text: as §2

[7] = test system: cell nuclei of hippocampal sections; test: Cell nuclei (DAPI) appearance in hippocampal sections, cellular toxicity; set-up: species or system rat; conditions: 14.4 mM; vs PBS
Procedure: (§3) Naïve rats were euthanized by decapitation, their brains were sectioned (10 μm) using a cryostat and the sections were mounted on slides and stored at −80°C for no longer than a week. These sections were warmed to room temperature for 10 minutes and preincubated for 3 hours in either PBS (pH 7.4 control) or 14.4 mM FN-439 in PBS at 37°C. The control slides were then incubated for an additional hour with DQ-gelatin-FITC (DQ, Molecular Probes, Eugene, Ore) and the treated slides were incubated with DQ containing 14.4 mM FN-439 for 1 additional hour. Following incubation, the slides were washed in PBS, fixed with 4% paraformaldehyde in PBS, and cover slipped using prolong antifade mounting medium containing DAPI (Molecular Probes, Eugene, Ore). The slides were examined using a Zeiss Axioplan 2I microscope using epifluorescent illumination and appropriate filter sets for visualizing DQ (FITC) and DAPI (UV) fluorescence. Images were captured at 100–200X magnification using a Kodak DC290 digital camera and Photoshop software (Adobe Systems Inc, San Jose, Calif).

[8] = test system: MMP-2 and MMP-9 gelatinase activity in the hippocampus; test: In situ zymography of hippocampal sections (DQ-gelatin-FITC); set-up: species or system rat; conditions: 14.4 mM, 3 h preincubation at 37°C plus 1 h with DQ-gelatin, vs PBS
Procedure: as §3

MMP-9 = conditions: 7.2 mM stock in aCSF infused over 30 min, 100 μL (350 μg); vs aCSF control; ref Reeves et al. [19]; cited from earlier work
[9] = test system: LTP in the sprouting crossed temporodentate pathway; conditions: icv 350 μg, following unilateral lesions of the entorhinal cortex; ref Reeves et al. [19]; cited from earlier work
HSF stromelysin = conditions: ref Odake et al. [37], read-out: IC50 against stromelysin; cited from earlier work
Source text: (§4) There are at least two possible explanations for these differences. First, Odake and colleagues used HSF stromelysin and HG gelatinase as substrates, while we used MMP-3 (stromelyisin-1) and MMP-9 (gelatinase B). Secon ...

HG gelatinase = conditions: ref Odake et al. [37], read-out: IC50 against gelatinase; cited from earlier work
Source text: as §4

[10] = catalytic domain, substrate Mca-Pro-Leu-Gly-Leu-Dpa-Ala-Arg-NH2, 30 min preincubation at 37°C, fluorescence at 10-min intervals for one hour, mean ± SEM

CC(C)C[C@@H](NC(=O)[C@@H]1CCCN1C(=O)CNC(=O)c1ccc(N)cc1)C(=O)N[C@H](C)C(=O)NO [FN-439, 4-Abz-Gly-Pro-D-Leu-D-Ala-OH]
time spent in the target quadrant ([1]; dorsal hippocampus, aCSF hippocampus 40.7 ± 2.2 s): 34.3 ± 2.7 s | number of entries into the target quadrant ([1]; hippocampus or icv, probe trial day 8, groups compared incl. aCSF (F3,28 = 0.98, P > .10)): no differences | time spent in the target quadrant ([1]; icv, aCSF icv 47.1 ± 4.0 s): 28.4 ± 0.8 s | IC50 [2, 10]: 16.2 ± 7.8 µM | effect upon the MMP-3 catalytic domain (in words) ([2]; in vitro fluorescence assay): maximal effect | acquisition of the Morris water maze task (in words) ([3]; bilateral into dorsal hippocampi or icv, 8 days, vs aCSF): significantly interfered with the acquisition of the task | positive thigmotaxis (ratio of time near the wall to total trial time), day 8 ([3]; dorsal hippocampus, aCSF hippocampus 0.17 ± 0.06): 0.37 ± 0.09 | day 8 latency to find the platform ([3]; dorsal hippocampus, bilateral, aCSF hippocampus 13.4 ± 1.0 s): 37.9 ± 8.4 s | day 8 distance swum to find the platform ([3]; dorsal hippocampus, bilateral, aCSF hippocampus 4.2 ± 0.5 m): 12.1 ± 2.9 m | overall swim speed during the 8 days of training ([3]; dorsal hippocampus, aCSF hippocampus 0.30 ± 0.02 m/s): 0.32 ± 0.02 m/s | latencies to find the platform on days 5–8 (in words) ([3]; hippocampus or icv, vs aCSF, P < .05): significantly longer latencies | positive thigmotaxis (ratio of time near the wall to total trial time), day 8 ([3]; icv, aCSF icv 0.14 ± 0.05): 0.45 ± 0.11 | day 8 latency to find the platform ([3]; icv, aCSF icv 14.3 ± 1.9 s): 44.4 ± 10.7 s | day 8 distance swum to find the platform ([3]; icv, aCSF icv 5.8 ± 0.7 m): 12.9 ± 2.7 m | overall swim speed during the 8 days of training ([3]; icv, aCSF icv 0.31 ± 0.02 m/s): 0.31 ± 0.02 m/s | dorsal hippocampus infusion compared with icv delivery (in words) ([3]; interference with acquisition of the Morris water maze task): equivalently effective | distance to find the platform, representative rat ([3]; dorsal hippocampus, aCSF rat 5.9 m): 17.9 m | latency to find the platform, representative rat ([3]; dorsal hippocampus, aCSF rat 15 s): 38.3 s | distance to find the platform, representative rat ([3]; icv, aCSF rat 4.7 m): 14.8 m | latency to find the platform, representative rat ([3]; icv, aCSF rat 13.3 s): 43.9 s | IC50 [4, 10]: 210 ± 37.8 µM | specificity for the MMP-9 catalytic domain (in words) ([4]; in vitro fluorescence assay): good specificity | acquisition of the Morris water maze task [5]: disrupted the acquisition of the Morris water maze task | late-phase of long-term potentiation (LTP) [6]: interfered with the late-phase of long-term potentiation | cellular toxicity (blue fluorescence of cell nuclei) [7]: no cellular toxicity | inhibition of MMP-2 and MMP-9 in the hippocampus ([8]; dentate gyrus): significantly inhibited | basal activity of MMP-9 (green fluorescence) [8]: significantly reduced | inhibition of MMP-9 activity (MMP-9): 83.6% | LTP in the sprouting pathway [9]: lack the ability to demonstrate LTP in the sprouting pathway | IC50 (HSF stromelysin): 150 µM | IC50 (HG gelatinase): 30 µM
